Measurements: patent EP0241837B1, “Stable injectable antiemetic compositions” (Bristol-Myers Squibb Company, priority 1986, dated 1987)
Read-outs that look alike come from different tables or passages of the source.

Test: Stability of Compound Ia (5 mg/ml) in aqueous solutions on storage at 56°C
Assay type: physicochemical
Conditions: for % Remaining (8 weeks): 80640 min; for remaining at 168 h: 1 week; for remaining at 336 h: 2 weeks
Description: The compounds of Formula I in aqueous, isotonic (isotonicity adjusted with sodium chloride and/or dextrose) and buffered ([…], pH 5.7 and 6.5) formulations containing the equivalent of 5 mg of free base of a compound of Formula I per ml have been found unsuitable for long term shelf life. Typical isotonic and buffered formulations lost 33% and 40%, respectively, of their potency following storage for eight weeks at 56°C. […] Tables 1 and 2 give the results of stability tests on the compound of Formula Ia in water and in isotonic saline, and in citrate buffers, respectively.
Tables 3 and 4, below, provide stability data for some of the stable injectable formulations of the present invention.

[1] = 0.01m citrate buffer, pH 5.7, 5 mg/ml in 0.01M citrate buffer pH 5.7, 56°C, average of duplicate samples, read-out: % Remaining(a) (pH 5.7)
[2] = 0.01m citrate buffer, pH 6.5, 5 mg/ml in 0.01M citrate buffer pH 6.5, 56°C, average of duplicate samples, read-out: % Remaining(a) (pH 6.5)
[3] = isotonic saline, 5mg/ml in isotonic saline, 56°C, average of duplicate samples, read-out: % Remaining(a) (Isotonic Saline)
[4] = water, 5mg/ml in water, 56°C, average of duplicate samples, read-out: % Remaining(a) (Water)

% Remaining(a) (pH 5.7) (5 mg/ml in 0.01M citrate buffer pH 5.7, 56°C, Initial, average of duplicate samples): 100.0%
% Remaining(a) (pH 6.5) (5 mg/ml in 0.01M citrate buffer pH 6.5, 56°C, Initial, average of duplicate samples): 100.0%
% Remaining(a) (Isotonic Saline) (5mg/ml in isotonic saline, 56°C, Initial, average of duplicate samples): 100.0%
% Remaining(a) (Water) (5mg/ml in water, 56°C, Initial, average of duplicate samples): 100.0%
% Remaining (8 weeks) (5mg/ml, Ethanol/Water (v/v) 0/100, calculated dielectric constant 78.5, 56°C, 8 weeks): 89.4%
% Remaining (8 weeks) (5mg/ml, Ethanol/Water (v/v) 25/75, calculated dielectric constant 64.9, 56°C, 8 weeks): 97.5%
% Remaining (8 weeks) (5mg/ml, Ethanol/Water (v/v) 50/50, calculated dielectric constant 51.4, 56°C, 8 weeks): 99.1%
remaining at 168 h [1]: 94.8%
remaining at 336 h [1]: 87.8%
remaining at 672 h (0.01m citrate buffer, pH 5.7, 5 mg/ml in 0.01M citrate buffer pH 5.7, 56°C, 4 weeks, average of duplicate samples, read-out: % Remaining(a) (pH 5.7)): 77.2%
remaining at 1344 h (0.01m citrate buffer, pH 5.7, 5 mg/ml in 0.01M citrate buffer pH 5.7, 56°C, 8 weeks, average of duplicate samples, read-out: % Remaining(a) (pH 5.7)): 58.9%
remaining at 168 h [2]: 93.6%
remaining at 336 h [2]: 87.9%
remaining at 672 h (0.01m citrate buffer, pH 6.5, 5 mg/ml in 0.01M citrate buffer pH 6.5, 56°C, 4 weeks, average of duplicate samples, read-out: % Remaining(a) (pH 6.5)): 77.5%
remaining at 1344 h (0.01m citrate buffer, pH 6.5, 5 mg/ml in 0.01M citrate buffer pH 6.5, 56°C, 8 weeks, average of duplicate samples, read-out: % Remaining(a) (pH 6.5)): 60.3%
remaining at 672 h (5% (w/v) glycerol, 5mg/ml, solvent 5% (w/v) Glycerol, calculated dielectric constant 76.3, 56°C, 4 weeks, read-out: % Remaining (4 weeks)): 95.1%
remaining at 1344 h (5% (w/v) glycerol, 5mg/ml, solvent 5% (w/v) Glycerol, calculated dielectric constant 76.3, 56°C, 8 weeks, read-out: %Remaining (8 weeks)): 90.9%
remaining at 672 h (15% (w/v) glycerol, 5mg/ml, solvent 15% (w/v) Glycerol, calculated dielectric constant 71.8, 56°C, 4 weeks, read-out: % Remaining (4 weeks)): 96.5%
remaining at 1344 h (15% (w/v) glycerol, 5mg/ml, solvent 15% (w/v) Glycerol, calculated dielectric constant 71.8, 56°C, 8 weeks, read-out: %Remaining (8 weeks)): 94.2%
remaining at 672 h (25% (w/v) glycerol, 5mg/ml, solvent 25% (w/v) Glycerol, calculated dielectric constant 71.4, 56°C, 4 weeks, read-out: % Remaining (4 weeks)): 96.8%
remaining at 1344 h (25% (w/v) glycerol, 5mg/ml, solvent 25% (w/v) Glycerol, calculated dielectric constant 71.4, 56°C, 8 weeks, read-out: %Remaining (8 weeks)): 95.3%
remaining at 672 h (25% (w/v) propylene glycol, 5mg/ml, solvent 25% (w/v) Propylene Glycol, calculated dielectric constant 67.3, 56°C, 4 weeks, read-out: % Remaining (4 weeks)): 97.7%
remaining at 1344 h (25% (w/v) propylene glycol, 5mg/ml, solvent 25% (w/v) Propylene Glycol, calculated dielectric constant 67.3, 56°C, 8 weeks, read-out: %Remaining (8 weeks)): 96.8%
remaining at 672 h (ethanol/water 0/100, 5mg/ml, Ethanol/Water (v/v) 0/100, calculated dielectric constant 78.5, 56°C, 4 weeks, read-out: % Remaining (4 weeks)): 94.9%
remaining at 672 h (ethanol/water 25/75, 5mg/ml, Ethanol/Water (v/v) 25/75, calculated dielectric constant 64.9, 56°C, 4 weeks, read-out: % Remaining (4 weeks)): 98.7%
remaining at 672 h (ethanol/water 50/50, 5mg/ml, Ethanol/Water (v/v) 50/50, calculated dielectric constant 51.4, 56°C, 4 weeks, read-out: % Remaining (4 weeks)): 99.5%
remaining at 672 h (ethanol/water 75/25, 5mg/ml, Ethanol/Water (v/v) 75/25, calculated dielectric constant 37.8, 56°C, 4 weeks, read-out: % Remaining (4 weeks)): 99.6%
remaining at 168 h [3]: 96%
remaining at 336 h [3]: 91.6%
remaining at 672 h (isotonic saline, 5mg/ml in isotonic saline, 56°C, 4 weeks, average of duplicate samples, read-out: % Remaining(a) (Isotonic Saline)): 83.5%
remaining at 1344 h (isotonic saline, 5mg/ml in isotonic saline, 56°C, 8 weeks, average of duplicate samples, read-out: % Remaining(a) (Isotonic Saline)): 66.9%
remaining at 168 h [4]: 97.4%
remaining at 336 h [4]: 95.5%
remaining at 672 h (water, 5mg/ml in water, 56°C, 4 weeks, average of duplicate samples, read-out: % Remaining(a) (Water)): 90.8%
remaining at 1344 h (water, 5mg/ml in water, 56°C, 8 weeks, average of duplicate samples, read-out: % Remaining(a) (Water)): 80.5%
remaining at 672 h (water, 5mg/ml, solvent Water, calculated dielectric constant 78.5, 56°C, 4 weeks (Table 4), read-out: % Remaining (4 weeks)): 94.9%
remaining at 1344 h (water, 5mg/ml, solvent Water, calculated dielectric constant 78.5, 56°C, 8 weeks (Table 4), read-out: %Remaining (8 weeks)): 88.1%
SMILES: CCN(CC)CCNC(=O)c1cc(Cl)c(N)cc1OC(C)C(C)=O (stereo not shown) [Compound Ia, 4-amino-2-(2-butanon-3-yl)-oxy-5-chloro-N-[2-(diethylamino)ethyl]benzamide]
